Assay results: patent US9187467B2, “2-phenyl benzothiazole linked imidazole compounds as potential anticancer agents and process for the preparation thereof” (Council of Scientific and Industrial Research, priority 2012, dated 2015)
Like-named read-outs stand apart in the source and are kept apart here.

Assays:
MDA-MB-231/ATCC = test: SRB anticancer assay, breast; format: cell-based, human; set-up: Log10GI50: unit not given here; settings: for GI50: Homo sapiens, MDA-MB-231, 48 h, 48 h, read-out: GI50
UACC-257 = test: SRB anticancer assay, melanoma; format: cell-based, human
NCI-H322M = test: SRB anticancer assay, non-small lung; format: cell-based, human; settings: Homo sapiens, 48 h
SK-OV-3 = test: SRB anticancer assay, ovarian; format: cell-based, human; settings: Homo sapiens, SK-OV-3, 48 h
SNB-19 = test: SRB anticancer assay, CNS; format: cell-based, human; set-up: Log10GI50: unit not given here
NCI-H23 = test: SRB anticancer assay, non-small lung; format: cell-based, human
[1] = system: MCF-7 (Breast carcinoma) cells; test: Cell cycle distribution by flow cytometry (FACS); format: cell-based; settings: MCF-7 cells, 2 μM, 24h
Protocol: FIG. 1 represents FACS analysis of cell cycle distribution of MCF-7 cells after treatment with compounds CA-4, 21a, 21d, 4c, 6d, 6e, 6f, 7d, 7h and 7j at 2 μM concentration for 24h and control cells are the cells treated with DMSO (0.25%).
(§1) In order to investigate the mechanism underlying the anti-proliferative effect of the compounds the cell cycle distribution was analyzed in K562 (Leukemia) and MCF-7 (Breast carcinoma) cell lines by flow cytometry. Compounds CA-4, 21a, 21d, 4c, 6d, 6e, 6f, 7d, 7h and 7j have shown 1.72%, 14%, 12%, 14%, 12%, 14%, 14%, 16%, 16% &12% in K562 cells and 49.63%, 21%, 20%, 18%, 21%, 21%, 21%, 24%, 23% and 23% in MCF-7 cell line respectively. […] Thus compound 7d was considered for further studies (FIG. 1).

SN12C = test: SRB anticancer assay, renal; format: cell-based, human; set-up: Log10GI50: unit not given here
SF-268 = test: SRB anticancer assay, CNS; format: cell-based, human; set-up: Log10GI50: unit not given here
HS 578T = test: SRB anticancer assay, breast; format: cell-based, human; set-up: Log10GI50: unit not given here
K562 (Leukemia) cells = test: Cell cycle distribution by flow cytometry; format: cell-based
Protocol: as §1

PC-3 = test: SRB anticancer assay, prostate; format: cell-based, human; set-up: Log10GI50: unit not given here
A498 = test: SRB anticancer assay, renal; format: cell-based, human; set-up: Log10GI50: unit not given here
BT-549 = test: SRB anticancer assay, breast; format: cell-based, human; set-up: Log10GI50: unit not given here
OVCAR-5 = test: SRB anticancer assay, ovarian; format: cell-based, human; settings: Homo sapiens, OVCAR-5, 48 h
NCI-H226 = test: SRB anticancer assay, non-small lung; format: cell-based, human; settings: Homo sapiens, NCI-H226, 48 h
UO-31 = test: SRB anticancer assay, renal; format: cell-based, human; set-up: Log10GI50: unit not given here
UACC-62 = test: SRB anticancer assay, melanoma; format: cell-based, human
IGROV1 = test: SRB anticancer assay, ovarian; format: cell-based, human; settings: Homo sapiens, IGROV-1; IGROV1, 48 h
HL-60 (TB) = test: SRB anticancer assay, leukemia; format: cell-based, human; set-up: Log10GI50: unit not given here
SK-MEL-2 = test: SRB anticancer assay, melanoma; format: cell-based, human
RXF 393 = test: SRB anticancer assay, renal; format: cell-based, human; set-up: Log10GI50: unit not given here
OVCAR-8 = test: SRB anticancer assay, ovarian; format: cell-based, human; set-up: Log10GI50: unit not given here
SNB-75 = test: SRB anticancer assay, CNS; format: cell-based, human; set-up: Log10GI50: unit not given here
MALME-3M = test: SRB anticancer assay, melanoma; format: cell-based, human; set-up: Log10GI50: unit not given here
T-47D = test: SRB anticancer assay, breast; format: cell-based; settings: Homo sapiens, T47D, 48 h
MCF7 = test: SRB anticancer assay, breast; format: cell-based, human; settings: Homo sapiens, MCF7, 48 h
HCT-116 = test: SRB anticancer assay, colon; format: cell-based, human; settings: Homo sapiens, HCT-116, 48 h
SK-MEL-28 = test: SRB anticancer assay, melanoma; format: cell-based, human; set-up: Log10GI50: unit not given here
ACHN = test: SRB anticancer assay, renal; format: cell-based, human; set-up: Log10GI50: unit not given here
A549/ATCC = test: SRB anticancer assay, non-small lung; format: cell-based, human; set-up: Log10GI50: unit not given here

## COc1cc(OC)cc(-c2cncn2-c2ccc(-c3nc4cc(OC)c(OC)c(OC)c4s3)cc2)c1 [Compound 7d, 2-(4-(5-(3,5-Dimethoxyphenyl)-1H-imidazol-1-yl)phenyl)-5,6,7-trimethoxybenzo[d]thiazole]
MDA-MB-231/ATCC; MDA-MB-231/ATCC (row head MDA-MB-)
  GI50: 19.2 µM
MDA-MB-231/ATCC; row head printed 231/ATCC (second line of MDA-MB-231/ATCC)
  GI50: 20.9 µM
MDA-MB-231/ATCC; MDA-MB-231/ATCC, present compounds
  Log10GI50: −4.72
UACC-257; Homo sapiens, UACC-257, 48 h
  GI50: 20.5 µM
UACC-257; UACC-257, present compounds
  Log10GI50: −4.69 log10(M)
NCI-H322M
  GI50: 86.5 µM
SK-OV-3
  GI50: 49.9 µM
SNB-19; Homo sapiens, SNB-19, 48 h
  GI50: 19.7 µM
SNB-19; SNB-19, present compounds
  Log10GI50: −4.70
NCI-H23; Homo sapiens, NCI-H23, 48 h
  GI50: 9.56 µM
NCI-H23; NCI-H23, present compounds
  Log10GI50: −5.02 log10(M)
[1]
  cells in G2/M phase: 24%
SN12C; Homo sapiens, 48 h
  GI50: 31.9 µM
SN12C; present compounds
  Log10GI50: −4.50
SF-268; Homo sapiens, SF-268, 48 h
  GI50: 22.1 µM
SF-268; SF-268, present compounds
  Log10GI50: −4.66
HS 578T; Homo sapiens, 48 h
  GI50: 6.71 µM
HS 578T; present compounds
  Log10GI50: −4.68
K562 (Leukemia) cells
  cells in G2/M phase: 16%
PC-3; Homo sapiens, PC-3, 48 h
  GI50: 3.17 µM
PC-3; PC-3, present compounds
  Log10GI50: −5.50
A498; A498, present compounds
  Log10GI50: >−4.0
A498; Homo sapiens, A498, 48 h
  GI50: > 100 µM
BT-549; BT-549, present compounds
  Log10GI50: −5.17
BT-549; Homo sapiens, BT-549, 48 h
  GI50: 4.74 µM
OVCAR-5
  GI50: > 100 µM
NCI-H226
  GI50: 21.7 µM
UO-31; Homo sapiens, UO-31, 48 h
  GI50: 1.94 µM
UO-31; UO-31, present compounds
  Log10GI50: −5.71
UACC-62; Homo sapiens, UACC-62, 48 h
  GI50: 13.8 µM
UACC-62; UACC-62, present compounds
  Log10GI50: −4.86 log10 M
IGROV1
  GI50: 9.6 µM
HL-60 (TB); HL-60(TB), present compounds
  Log10GI50: −5.61
HL-60 (TB); Homo sapiens, HL-60, 48 h
  GI50: 2.43 µM
SK-MEL-2; Homo sapiens, SK-MEL-2, 48 h
  GI50: 6.16 µM
SK-MEL-2; SK-MEL-2, present compounds
  Log10GI50: −5.21 M
RXF 393; Homo sapiens, RXF 393, 48 h
  GI50: 30.2 µM
RXF 393; RXF 393, present compounds
  Log10GI50: −4.52
OVCAR-8; Homo sapiens, OVCAR-8, 48 h
  GI50: 13.4 µM
OVCAR-8; OVCAR-8, present compounds
  Log10GI50: −4.87
SNB-75; Homo sapiens, SNB-75, 48 h
  GI50: 15 µM
SNB-75; SNB-75, present compounds
  Log10GI50: −4.82
MALME-3M; Homo sapiens, Malme-3M, 48 h
  GI50: 9.58 µM
MALME-3M; MALME-3M, present compounds
  Log10GI50: −5.02
T-47D
  GI50: 10.7 µM
MCF7
  GI50: 4.02 µM
HCT-116
  GI50: 3.76 µM
SK-MEL-28; Homo sapiens, SK-MEL-28, 48 h
  GI50: 31.6 µM
SK-MEL-28; SK-MEL-28, present compounds
  Log10GI50: −4.50
ACHN; Homo sapiens, 48 h
  GI50: 11.5 µM
ACHN; present compounds
  Log10GI50: −4.94
A549/ATCC; Homo sapiens, 48 h
  GI50: 5.59 µM
A549/ATCC; present compounds
  Log10GI50: −5.25
